The subject of test [1] is cochlear post-synaptic tinnitus. To be noted: infusion; according to EP 0 542 689; cited from earlier work.
The test system of test [2] is muscular tinnitus (myognathic tinnitus). Nature of the test: Intravenous Caroverin in muscular (myognathic) tinnitus. Format: in vivo. To be noted: intravenous administration. From the text: In addition, new trials by the inventor have shown that Caroverin is not indicated for the treatment of all forms of tinnitus. […] Muscular or myognathic tinnitus is identified by imparting an electrical charge to the chewing musculature, whereby the intensity and frequency of the symptoms of tinnitus can be altered. Myognathic tinnitus can substantially be caused to disappear when the tendon bundles of the middle ear musculature that operates the chain of auditory ossicles are surgically sectioned (tenotomy). The precise mechanism involved in this effect is still unclear.

Turning to `CCN(CC)CCn1c(=O)c(Cc2ccc(OC)cc2)nc2ccccc21` [Caroverin, 1-diethylaminoethyl-3-(p-methoxybenzyl)-1,2-dihydro-quinoxaline-2-one], the “treatability of cochlear post-synaptic tinnitus” value in test [1] was “treatable”. Further, the “response of muscular (myognathic) tinnitus” value in test [2] was “not responsive”.

Values taken from US20050288292A1, “Pharmaceutical formulation and its use in the treatment of inner ear diseases” (priority 2002, published 2005).
